# Measured values taken from patent US20240156097A1, “AGROCHEMICAL ADJUVANTS FROM STACHYBOTRYS CHARTARUM” (Croda International Plc, priority 2021, published 2024).
# Assays:
# [1] = system: African green monkey Vero kidney cells (ATCC CCL-81); assay: Cytotoxicity against Vero cells (alamarBlue); format: cell-based; conditions: highest concentration tested (128 μg/mL); 24 hours
# Experimental: The cytotoxicity of the phenylspirodrimanes and stachybocin A was assessed in vitro against African green monkey Vero kidney cells (ATCC CCL-81). Cells were cultured in 15 mL of Eagle's minimal essential medium (Sigma) supplemented with 10% (v/v) fetal bovine serum (VWR), […] and 0.1 mg/mL streptomycin in T75 cm^2 cell culture flasks. Cells were incubated for 24 hours at 37° C. in a humidified atmosphere of 5% CO2. Culture medium was refreshed every 2-3 days and cells were not allowed to exceed 80% confluency.
# At 80% confluency the cells were counted, diluted and plated into 96 well flat bottom cell culture plates (Corning) at a cell density of 10,000 cells per well in 90 μL of growth medium. The plates were incubated at 37° C. in a humidified atmosphere of 5% CO2 for 24 hours to allow cells to adhere to the plate before treatment. […]
# The plates were incubated at 37° C. in a humidified atmosphere of 5% C02 for 24 hours after which alamarBlue (Invitrogen) was added to each well at 10% of the culture volume. Fluorescence was monitored using a Thermo Scientific Varioskan Flash plate reader at 560/12 excitation, 590 nm emission both at time zero and 4 hrs after alamarBlue addition. After subtracting the time zero emission 590 nm measurement from the final reading, the inferred percentage of cell viability relative to the vehicle control wells was calculated.
# [2] = system: Botrytis cinerea (ATCC 90479); assay: Adjuvancy: growth inhibition of Botrytis cinerea on agar with fungicide and/or adjuvant (colony diameter); format: cell-based; conditions: for Fold Change in Growth Inhibition: 48 h, 22° C.; for inherent fungicidal activity on their own: adjuvant alone, any of the concentrations tested; for fungicidal activity compared to dimethomorph, prothioconazole, mancozeb, metalaxyl and pyrimethanil alone: in words, adjuvant plus fungicide
# [3] = adjuvant 12.5 μg/mL + pyraclostrobin 0.1 μg/mL vs pyraclostrobin alone
# [4] = adjuvant 12.5 μg/mL + pyraclostrobin 0.2 μg/mL vs pyraclostrobin alone
# [5] = adjuvant 12.5 μg/mL + pyraclostrobin 0.4 μg/mL vs pyraclostrobin alone
# [6] = adjuvant 12.5 μg/mL + pyraclostrobin 0.8 μg/mL vs pyraclostrobin alone
# [7] = adjuvant 12.5 μg/mL + tebuconazole 0.05 μg/mL vs tebuconazole alone
# [8] = adjuvant 12.5 μg/mL + tebuconazole 0.10 μg/mL vs tebuconazole alone
# [9] = adjuvant 12.5 μg/mL + tebuconazole 0.19 μg/mL vs tebuconazole alone
# [10] = adjuvant 12.5 μg/mL + tebuconazole 0.38 μg/mL vs tebuconazole alone
# [11] = adjuvant 25 μg/mL + pyraclostrobin 0.1 μg/mL vs pyraclostrobin alone
# [12] = adjuvant 25 μg/mL + pyraclostrobin 0.2 μg/mL vs pyraclostrobin alone
# [13] = adjuvant 25 μg/mL + pyraclostrobin 0.4 μg/mL vs pyraclostrobin alone
# [14] = adjuvant 25 μg/mL + pyraclostrobin 0.8 μg/mL vs pyraclostrobin alone
# [15] = adjuvant 25 μg/mL + tebuconazole 0.05 μg/mL vs tebuconazole alone
# [16] = adjuvant 25 μg/mL + tebuconazole 0.10 μg/mL vs tebuconazole alone
# [17] = adjuvant 25 μg/mL + tebuconazole 0.19 μg/mL vs tebuconazole alone
# [18] = adjuvant 25 μg/mL + tebuconazole 0.38 μg/mL vs tebuconazole alone
# [19] = adjuvant 50 μg/mL + pyraclostrobin 0.1 μg/mL vs pyraclostrobin alone
# [20] = adjuvant 50 μg/mL + pyraclostrobin 0.2 μg/mL vs pyraclostrobin alone
# [21] = adjuvant 50 μg/mL + pyraclostrobin 0.4 μg/mL vs pyraclostrobin alone
# [22] = adjuvant 50 μg/mL + pyraclostrobin 0.8 μg/mL vs pyraclostrobin alone
# [23] = adjuvant 50 μg/mL + tebuconazole 0.05 μg/mL vs tebuconazole alone
# [24] = adjuvant 50 μg/mL + tebuconazole 0.10 μg/mL vs tebuconazole alone
# [25] = adjuvant 50 μg/mL + tebuconazole 0.19 μg/mL vs tebuconazole alone
# [26] = adjuvant 50 μg/mL + tebuconazole 0.38 μg/mL vs tebuconazole alone
Structure (SMILES),cytotoxicity against Vero cells [1],"Fold Change in Growth Inhibition [2, 3]","Fold Change in Growth Inhibition [2, 4]","Fold Change in Growth Inhibition [2, 5]","Fold Change in Growth Inhibition [2, 6]","Fold Change in Growth Inhibition [2, 7]","Fold Change in Growth Inhibition [2, 8]","Fold Change in Growth Inhibition [2, 9]","Fold Change in Growth Inhibition [2, 10]","Fold Change in Growth Inhibition [2, 11]","Fold Change in Growth Inhibition [2, 12]","Fold Change in Growth Inhibition [2, 13]","Fold Change in Growth Inhibition [2, 14]","Fold Change in Growth Inhibition [2, 15]","Fold Change in Growth Inhibition [2, 16]","Fold Change in Growth Inhibition [2, 17]","Fold Change in Growth Inhibition [2, 18]","Fold Change in Growth Inhibition [2, 19]","Fold Change in Growth Inhibition [2, 20]","Fold Change in Growth Inhibition [2, 21]",other results
"CC1CCC2C(C)(C)C(O)CCC2(C)C12Cc1c(O)cc3c(c1O2)CN(C(Cc1ccccc1)C(=O)O)C3=O (stereo not drawn) [Phe (Ib), phenylspirodrimane (Ib)]",did not exhibit any cytotoxicity,3.59,1.11,1.47,1.55,22.22,2.83,2.17,1.03,4.25,1.56,1.08,1.19,7.94,1.67,1.83,1.00,17.87,1.67,1.62,"Fold Change in Growth Inhibition [2, 22]: 1.57; Fold Change in Growth Inhibition [2, 23]: 14.29; Fold Change in Growth Inhibition [2, 24]: 4.33; Fold Change in Growth Inhibition [2, 25]: 2.36; Fold Change in Growth Inhibition [2, 26]: 1.00; inherent fungicidal activity on their own [2]: did not demonstrate any inherent fungicidal activity; fungicidal activity compared to dimethomorph, prothioconazole, mancozeb, metalaxyl and pyrimethanil alone [2]: showed increased fungicidal activity"
"CC1CCC2C(C)(C)C(O)CCC2(C)C12Cc1c(O)cc3c(c1O2)CN(CCCCC(C(=O)O)N1Cc2c(cc(O)c4c2OC2(C4)C(C)CCC4C(C)(C)C(O)CCC42C)C1=O)C3=O (stereo not drawn) [Sta A (IIa), stachybocin A]",did not exhibit any cytotoxicity,2.92,1.00,1.00,1.00,12.70,2.83,2.36,1.00,2.92,1.00,1.00,1.00,14.29,2.67,1.81,1.00,2.25,1.00,1.47,"Fold Change in Growth Inhibition [2, 22]: 1.08; Fold Change in Growth Inhibition [2, 23]: 12.70; Fold Change in Growth Inhibition [2, 24]: 2.17; Fold Change in Growth Inhibition [2, 25]: 1.36; Fold Change in Growth Inhibition [2, 26]: 1.00; inherent fungicidal activity on their own [2]: did not demonstrate any inherent fungicidal activity; fungicidal activity compared to dimethomorph, prothioconazole, mancozeb, metalaxyl and pyrimethanil alone [2]: showed increased fungicidal activity"
